Results taken from ChEMBL document CHEMBL5154704 (Bioorg Med Chem, 2022).

Assays:
[1] = Toxicity in ICR mouse at 500 mg/kg, ig measured after 7 days; type: organism-based; conditions: in vivo, po, 168 h, time 7 day
[2] = target: Free fatty acid receptor 1 (Homo sapiens, UniProt O14842); assay: Agonist activity at human FFA1 expressed in CHO cells assessed as increase in calcium level measured by Fluo-4-AM staining based FLIPR assay; type: functional, cell-based
Sequence of Free fatty acid receptor 1 (O14842 whole entry): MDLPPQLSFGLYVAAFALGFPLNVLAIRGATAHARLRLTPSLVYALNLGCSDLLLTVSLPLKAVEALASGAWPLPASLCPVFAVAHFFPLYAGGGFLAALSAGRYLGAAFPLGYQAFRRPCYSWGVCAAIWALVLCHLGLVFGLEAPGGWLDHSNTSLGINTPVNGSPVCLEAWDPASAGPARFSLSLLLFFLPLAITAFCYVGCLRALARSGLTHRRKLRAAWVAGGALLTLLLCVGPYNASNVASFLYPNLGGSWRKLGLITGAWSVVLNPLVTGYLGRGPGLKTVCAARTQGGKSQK

EC50 [2] [nM]	Compound	Activity [1]
	COc1ccc2cc(-c3cccc(COc4ccc(OCC(=O)O)c(F)c4)c3)ccc2c1	Non-Toxic
61	Cc1cc(OCCCS(C)(=O)=O)ccc1-c1cccc(COc2ccc(OCC(=O)O)c(F)c2)c1	
